According to PubChem BioAssay (NCI):
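Five compound concentrations were applied to cells in 96-well plates for 48 hours; endpoints were derived by simple linear interpolation of the resulting dose-response curve. GI50 = concentration required for 50% inhibition of growth. The concentration for full growth arrest is given as TGI.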

tested on: SN12C renal; experiment: growth of human tumour cells (NCI), 48 h

SMILES	GI50	TGI
CCn1c(-c2nonc2N)nc2c(C#CC(C)(C)O)nc(OC[C@H](N)c3ccccc3)cc21	3.67 µM	7.38 µM
O=C1/C(=C/c2ccc(Br)cc2)COc2ccc(O)c(O)c21	0.617 µM	2.32 µM
CCCCCCNC(=O)c1cc(NCc2cc(O)ccc2O)ccc1O	4.75 µM	17.4 µM
CC(CCC=O)CCOCc1ccccc1 (stereo not given)	–	> 100 µM
Cc1ccc(C)c(C2=C(c3cn(C)c4ccccc34)C(=O)NC2=O)c1	> 25 µM	> 25 µM
O=C(Nc1nc2ccc(C(F)(F)F)cc2s1)c1cc(Cl)ccc1O	0.353 µM	> 100 µM
CN(C)N=Nc1ccc(NC=O)cc1	–	> 100 µM
COc1ccc2c(c1)CCCC(Br)C2=O (stereo not given)	–	9.13 µM
COc1ccc(-n2cc(-c3cc(OC)c(OC)c(OC)c3)c(C(=O)C(F)(F)F)c2C)cc1	28.6 µM	> 100 µM
COc1cc(C2CC(c3cccc(Br)c3)=NN2C(C)=O)cc(OC)c1OC (stereo not given)	2.76 µM	> 81.4 µM
COc1cc(N(CCC#N)CCC#N)ccc1/C(N=Nc1ccc([N+](=O)[O-])cc1)=N/NC(=O)c1cc(Br)ccc1O	53.4 µg/mL	> 150 µg/mL

tested on: RXF 393 renal; experiment: growth of human tumour cells (NCI), 48 h

SMILES	GI50	TGI
CCn1c(-c2nonc2N)nc2c(C#CC(C)(C)O)nc(OC[C@H](N)c3ccccc3)cc21	1.28 µM	4.73 µM
O=C1/C(=C/c2ccc(Br)cc2)COc2ccc(O)c(O)c21	1.1 µM	2.43 µM
CCCCCCNC(=O)c1cc(NCc2cc(O)ccc2O)ccc1O	2.42 µM	8.03 µM
CC(CCC=O)CCOCc1ccccc1 (stereo not given)	–	> 100 µM
Cc1ccc(C)c(C2=C(c3cn(C)c4ccccc34)C(=O)NC2=O)c1	5.93 µM	> 25 µM
O=C(Nc1nc2ccc(C(F)(F)F)cc2s1)c1cc(Cl)ccc1O	1.76 µM	11.1 µM
CN(C)N=Nc1ccc(NC=O)cc1	–	> 100 µM
COc1ccc2c(c1)CCCC(Br)C2=O (stereo not given)	–	17.7 µM
COc1ccc(-n2cc(-c3cc(OC)c(OC)c(OC)c3)c(C(=O)C(F)(F)F)c2C)cc1	> 100 µM	> 100 µM
COc1cc(C2CC(c3cccc(Br)c3)=NN2C(C)=O)cc(OC)c1OC (stereo not given)	0.266 µM	0.976 µM
COc1cc(N(CCC#N)CCC#N)ccc1/C(N=Nc1ccc([N+](=O)[O-])cc1)=N/NC(=O)c1cc(Br)ccc1O	30.3 µg/mL	83.8 µg/mL

tested on: M14 melanoma; experiment: growth of human tumour cells (NCI), 48 h

SMILES	GI50	TGI
CCn1c(-c2nonc2N)nc2c(C#CC(C)(C)O)nc(OC[C@H](N)c3ccccc3)cc21	3.94 µM	7.47 µM
O=C1/C(=C/c2ccc(Br)cc2)COc2ccc(O)c(O)c21	1.41 µM	3.47 µM
CCCCCCNC(=O)c1cc(NCc2cc(O)ccc2O)ccc1O	11.1 µM	25.2 µM
CC(CCC=O)CCOCc1ccccc1 (stereo not given)	–	> 100 µM
Cc1ccc(C)c(C2=C(c3cn(C)c4ccccc34)C(=O)NC2=O)c1	> 25 µM	> 25 µM
O=C(Nc1nc2ccc(C(F)(F)F)cc2s1)c1cc(Cl)ccc1O	0.935 µM	23.9 µM
CN(C)N=Nc1ccc(NC=O)cc1	–	> 100 µM
COc1ccc2c(c1)CCCC(Br)C2=O (stereo not given)	–	16.5 µM
COc1ccc(-n2cc(-c3cc(OC)c(OC)c(OC)c3)c(C(=O)C(F)(F)F)c2C)cc1	> 100 µM	> 100 µM
COc1cc(C2CC(c3cccc(Br)c3)=NN2C(C)=O)cc(OC)c1OC (stereo not given)	0.555 µM	50.2 µM
COc1cc(N(CCC#N)CCC#N)ccc1/C(N=Nc1ccc([N+](=O)[O-])cc1)=N/NC(=O)c1cc(Br)ccc1O	44.5 µg/mL	148 µg/mL

tested on: SK-OV-3 ovarian; experiment: growth of human tumour cells (NCI), 48 h

SMILES	GI50	TGI
CCn1c(-c2nonc2N)nc2c(C#CC(C)(C)O)nc(OC[C@H](N)c3ccccc3)cc21	1.56 µM	5.71 µM
O=C1/C(=C/c2ccc(Br)cc2)COc2ccc(O)c(O)c21	2.63 µM	11.6 µM
CCCCCCNC(=O)c1cc(NCc2cc(O)ccc2O)ccc1O	25.8 µM	> 100 µM
CC(CCC=O)CCOCc1ccccc1 (stereo not given)	–	> 100 µM
Cc1ccc(C)c(C2=C(c3cn(C)c4ccccc34)C(=O)NC2=O)c1	15.1 µM	> 25 µM
O=C(Nc1nc2ccc(C(F)(F)F)cc2s1)c1cc(Cl)ccc1O	0.497 µM	4.77 µM
CN(C)N=Nc1ccc(NC=O)cc1	–	> 100 µM
COc1ccc2c(c1)CCCC(Br)C2=O (stereo not given)	–	14.3 µM
COc1ccc(-n2cc(-c3cc(OC)c(OC)c(OC)c3)c(C(=O)C(F)(F)F)c2C)cc1	> 100 µM	> 100 µM
COc1cc(C2CC(c3cccc(Br)c3)=NN2C(C)=O)cc(OC)c1OC (stereo not given)	0.379 µM	47.2 µM
COc1cc(N(CCC#N)CCC#N)ccc1/C(N=Nc1ccc([N+](=O)[O-])cc1)=N/NC(=O)c1cc(Br)ccc1O	37.3 µg/mL	> 150 µg/mL

tested on: CCRF-CEM leukemia; experiment: growth of human tumour cells (NCI), 48 h

SMILES	GI50	TGI
CCn1c(-c2nonc2N)nc2c(C#CC(C)(C)O)nc(OC[C@H](N)c3ccccc3)cc21	3.65 µM	24.9 µM
O=C1/C(=C/c2ccc(Br)cc2)COc2ccc(O)c(O)c21	0.462 µM	> 100 µM
CCCCCCNC(=O)c1cc(NCc2cc(O)ccc2O)ccc1O	0.409 µM	46.5 µM
CC(CCC=O)CCOCc1ccccc1 (stereo not given)	–	> 84.2 µM
Cc1ccc(C)c(C2=C(c3cn(C)c4ccccc34)C(=O)NC2=O)c1	5.42 µM	> 25 µM
O=C(Nc1nc2ccc(C(F)(F)F)cc2s1)c1cc(Cl)ccc1O	0.378 µM	96.5 µM
CN(C)N=Nc1ccc(NC=O)cc1	–	> 100 µM
COc1ccc2c(c1)CCCC(Br)C2=O (stereo not given)	–	1.48 µM
COc1ccc(-n2cc(-c3cc(OC)c(OC)c(OC)c3)c(C(=O)C(F)(F)F)c2C)cc1	16.1 µM	> 100 µM
COc1cc(C2CC(c3cccc(Br)c3)=NN2C(C)=O)cc(OC)c1OC (stereo not given)	0.264 µM	4.5 µM
COc1cc(N(CCC#N)CCC#N)ccc1/C(N=Nc1ccc([N+](=O)[O-])cc1)=N/NC(=O)c1cc(Br)ccc1O	48.5 µg/mL	> 150 µg/mL
